One may read the IC50 as the concentration at which inhibition is half-maximal.

This assay in a line: Inhibition of c-MYC (unknown origin).

`[2H]C([2H])([2H])c1nnn(C)c1-c1cc2c(cc1F)c1ncc(C(C)(C)O)cc1n2[C@H](c1ncccc1F)C1CCOCC1` showed an IC50 of 1.3 nM.
For `[2H]C([2H])([2H])c1nnn(C)c1-c1cc2c(cc1F)c1ncc(C(C)(C)O)cc1n2[C@H](c1cc(C)on1)C1CCOCC1`, the IC50 stood at 2.4 nM.
Next, `[2H]C([2H])([2H])c1nnn(C)c1-c1cc2c(cc1F)c1ncc(C(C)(C)O)cc1n2[C@@H](CCC)c1ncccc1F`: 0.7 nM.
With `Cc1nnn(C)c1-c1cc2c(cn1)c1ncc(C(C)(C)O)cc1n2[C@H](c1ccccc1)C1CCOCC1` [US9725449, Example 364], 6.9 nM corresponded to half-maximal inhibition (IC50).
In the case of `Cc1nnn(C)c1-c1cnc2c3ccc(C(C)(C)O)cc3n([C@H](c3ccccc3)C3CCOCC3)c2c1` [US10112941, Example 54] it was 0.7 nM; in that of `Cc1nnn(C)c1-c1cc(F)c2c3ncc(C(C)(C)O)cc3n([C@H](c3ccccc3)C3CCOCC3)c2c1` [US10683290, Example 11], 3.4 nM; in that of `Cc1nnn(C)c1-c1ccc2c3ncc(C(C)(C)O)cc3n([C@H](c3ccccc3)C3CCOCC3)c2c1` [US10683290, Example 16], 0.2 nM.
In the case of `Cc1nnn(C)c1-c1cc2c(cc1F)c1ncc(C(C)(C)O)cc1n2[C@H](c1ccccc1)C1CCOCC1` [US10683290, Example 19] it was 0.8 nM; in that of `Cc1nnn(C)c1-c1ccc2c3ncc(C(C)(C)O)cc3n([C@H](c3ccccc3)C3CCOCC3)c2c1F` [US10683290, Example 20], 0.6 nM; in that of `Cc1nnn(C)c1-c1cc2c(cc1Cl)c1ncc(C(C)(C)O)cc1n2[C@H](c1ccccc1)C1CCOCC1` [US10683290, Example 77], 42 nM.

Values taken from BindingDB's records for doi:10.1016/j.bmcl.2021.128376 (Bristol Myers Squibb Research and Development, 2021).
